In ChEMBL document CHEMBL3885881, “DrugMatrix”:

Organism: Rattus norvegicus
Experiment: DrugMatrix - Regimen: Daily Repeat
Format: toxicity, organism-based, Sprague-Dawley
Design: regimen Daily Repeat, gender Male, age 6-8 weeks
Conditions: in vivo, po, route oral GAVAGE, […]; for ABSOLUTE BASOPHIL / ABSOLUTE EOSINOPHIL / ABSOLUTE LYMPHOCYTE / ABSOLUTE MONOCYTE / ABSOLUTE SEGMENTED NEUTROPHIL / BASOPHIL / EOSINOPHIL / ERYTHROCYTE COUNT / HEMATOCRIT / HEMOGLOBIN / LEUKOCYTE COUNT / LYMPHOCYTE / MEAN CORPUSCULAR HEMOGLOBIN / MEAN CORPUSCULAR HEMOGLOBIN CONCENTRATION / MEAN CORPUSCULAR VOLUME / MONOCYTE / NEUTROPHIL / NUCLEATED RED BLOOD CELLS / PLATELET COUNT: tissue Blood; for ALANINE AMINOTRANSFERASE / ALBUMIN / ALKALINE PHOSPHATASE / ASPARTATE AMINOTRANSFERASE / BLOOD UREA NITROGEN / CARBON DIOXIDE / CHLORIDE / CHOLESTEROL / CREATINE PHOSPHOKINASE / CREATININE / GLUCOSE / LACTATE DEHYDROGENASE / LIPASE / PHOSPHORUS / POTASSIUM / SODIUM / TOTAL BILIRUBIN / TOTAL PROTEIN / URIC ACID: tissue Plasma
[1] = 25 mg/kg, 72 h, dose level Low, time 3 day
[2] = 25 mg/kg, 120 h, dose level Low, time 5 day
[3] = 250 mg/kg, 72 h, dose level High, time 3 day
[4] = 250 mg/kg, 120 h, dose level High, time 5 day

SMILES: CC(C)C(Br)C(=O)NC(N)=O (configuration not stated) [BROMISOVALUM]
- ABSOLUTE BASOPHIL [1]: 0 CELLS/uL
- ABSOLUTE EOSINOPHIL [1]: 72.33 CELLS/uL
- ABSOLUTE LYMPHOCYTE [1]: 9251.33 CELLS/uL
- ABSOLUTE MONOCYTE [1]: 35.67 CELLS/uL
- ABSOLUTE SEGMENTED NEUTROPHIL [1]: 740.67 CELLS/uL
- BASOPHIL [1]: 0%
- EOSINOPHIL [1]: 0.67%
- ERYTHROCYTE COUNT [1]: 5.09 x10E6/uL
- HEMATOCRIT [1]: 32.1%
- HEMOGLOBIN [1]: 12.97 G/DL
- LEUKOCYTE COUNT [1]: 10.1 x10E3/uL
- LYMPHOCYTE [1]: 91.67%
- MEAN CORPUSCULAR HEMOGLOBIN [1]: 25.47 pg
- MEAN CORPUSCULAR HEMOGLOBIN CONCENTRATION [1]: 40.4 G/DL
- MEAN CORPUSCULAR VOLUME [1]: 63.03 fL
- MONOCYTE [1]: 0.33%
- NEUTROPHIL [1]: 7.33%
- NUCLEATED RED BLOOD CELLS [1]: 0 /100WBC
- PLATELET COUNT [1]: 1168.33 x10E3/uL
- ALANINE AMINOTRANSFERASE [1]: 71.33 u/L
- ALBUMIN [1]: 4.37 G/DL
- ALKALINE PHOSPHATASE [1]: 465.67 u/L
- ASPARTATE AMINOTRANSFERASE [1]: 81.33 u/L
- BLOOD UREA NITROGEN [1]: 12.67 mg/dL
- CARBON DIOXIDE [1]: 33.33 mmol/L
- CHLORIDE [1]: 101 MEQ/L
- CHOLESTEROL [1]: 83 mg/dL
- CREATINE PHOSPHOKINASE [1]: 114.33 u/L
- CREATININE [1]: 0.13 mg/dL
- GLUCOSE [1]: 140.33 mg/dL
- LACTATE DEHYDROGENASE [1]: 109.33 u/L
- LIPASE [1]: 12.67 u/L
- PHOSPHORUS [1]: 10.3 mg/dL
- POTASSIUM [1]: 5.88 MEQ/L
- SODIUM [1]: 149.4 MEQ/L
- TOTAL BILIRUBIN [1]: 0.23 mg/dL
- TOTAL PROTEIN [1]: 5.6 G/DL
- URIC ACID [1]: 0.63 mg/dL
- ABSOLUTE BASOPHIL [2]: 0 CELLS/uL
- ABSOLUTE EOSINOPHIL [2]: 0 CELLS/uL
- ABSOLUTE LYMPHOCYTE [2]: 11869 CELLS/uL
- ABSOLUTE MONOCYTE [2]: 46.67 CELLS/uL
- ABSOLUTE SEGMENTED NEUTROPHIL [2]: 851 CELLS/uL
- BASOPHIL [2]: 0%
- EOSINOPHIL [2]: 0%
- ERYTHROCYTE COUNT [2]: 5.78 x10E6/uL
- HEMATOCRIT [2]: 35.77%
- HEMOGLOBIN [2]: 14.1 G/DL
- LEUKOCYTE COUNT [2]: 12.77 x10E3/uL
- LYMPHOCYTE [2]: 93%
- MEAN CORPUSCULAR HEMOGLOBIN [2]: 24.37 pg
- MEAN CORPUSCULAR HEMOGLOBIN CONCENTRATION [2]: 39.43 G/DL
- MEAN CORPUSCULAR VOLUME [2]: 61.83 fL
- MONOCYTE [2]: 0.33%
- NEUTROPHIL [2]: 6.67%
- NUCLEATED RED BLOOD CELLS [2]: 0 /100WBC
- PLATELET COUNT [2]: 1234 x10E3/uL
- ALANINE AMINOTRANSFERASE [2]: 59.67 u/L
- ALBUMIN [2]: 4.33 G/DL
- ALKALINE PHOSPHATASE [2]: 401 u/L
- ASPARTATE AMINOTRANSFERASE [2]: 86.33 u/L
- BLOOD UREA NITROGEN [2]: 12.67 mg/dL
- CARBON DIOXIDE [2]: 27 mmol/L
- CHLORIDE [2]: 103 MEQ/L
- CHOLESTEROL [2]: 65 mg/dL
- CREATINE PHOSPHOKINASE [2]: 275 u/L
- CREATININE [2]: 0.14 mg/dL
- GLUCOSE [2]: 162.67 mg/dL
- LACTATE DEHYDROGENASE [2]: 114.33 u/L
- LIPASE [2]: 9.67 u/L
- PHOSPHORUS [2]: 12.73 mg/dL
- POTASSIUM [2]: 6.6 MEQ/L
- SODIUM [2]: 147.97 MEQ/L
- TOTAL BILIRUBIN [2]: 0.2 mg/dL
- TOTAL PROTEIN [2]: 6.17 G/DL
- URIC ACID [2]: 1.7 mg/dL
- ABSOLUTE BASOPHIL [3]: 0 CELLS/uL
- ABSOLUTE EOSINOPHIL [3]: 0 CELLS/uL
- ABSOLUTE LYMPHOCYTE [3]: 11820.33 CELLS/uL
- ABSOLUTE MONOCYTE [3]: 38.33 CELLS/uL
- ABSOLUTE SEGMENTED NEUTROPHIL [3]: 1174.67 CELLS/uL
- BASOPHIL [3]: 0%
- EOSINOPHIL [3]: 0%
- ERYTHROCYTE COUNT [3]: 5.57 x10E6/uL
- HEMATOCRIT [3]: 35.87%
- HEMOGLOBIN [3]: 14.33 G/DL
- LEUKOCYTE COUNT [3]: 13.03 x10E3/uL
- LYMPHOCYTE [3]: 91%
- MEAN CORPUSCULAR HEMOGLOBIN [3]: 25.8 pg
- MEAN CORPUSCULAR HEMOGLOBIN CONCENTRATION [3]: 39.97 G/DL
- MEAN CORPUSCULAR VOLUME [3]: 64.47 fL
- MONOCYTE [3]: 0.33%
- NEUTROPHIL [3]: 8.67%
- NUCLEATED RED BLOOD CELLS [3]: 0 /100WBC
- PLATELET COUNT [3]: 1177.33 x10E3/uL
- ALANINE AMINOTRANSFERASE [3]: 70 u/L
- ALBUMIN [3]: 4.17 G/DL
- ALKALINE PHOSPHATASE [3]: 407.67 u/L
- ASPARTATE AMINOTRANSFERASE [3]: 90.33 u/L
- BLOOD UREA NITROGEN [3]: 15 mg/dL
- CARBON DIOXIDE [3]: 27.33 mmol/L
- CHLORIDE [3]: 103 MEQ/L
- CHOLESTEROL [3]: 62.67 mg/dL
- CREATINE PHOSPHOKINASE [3]: 210.67 u/L
- CREATININE [3]: 0.26 mg/dL
- GLUCOSE [3]: 148 mg/dL
- LACTATE DEHYDROGENASE [3]: 109.33 u/L
- LIPASE [3]: 10.33 u/L
- PHOSPHORUS [3]: 11.9 mg/dL
- POTASSIUM [3]: 6.86 MEQ/L
- SODIUM [3]: 144.53 MEQ/L
- TOTAL BILIRUBIN [3]: 0.2 mg/dL
- TOTAL PROTEIN [3]: 5.67 G/DL
- URIC ACID [3]: 1.67 mg/dL
- ABSOLUTE BASOPHIL [4]: 0 CELLS/uL
- ABSOLUTE EOSINOPHIL [4]: 46.33 CELLS/uL
- ABSOLUTE LYMPHOCYTE [4]: 14344.33 CELLS/uL
- ABSOLUTE MONOCYTE [4]: 108 CELLS/uL
- ABSOLUTE SEGMENTED NEUTROPHIL [4]: 1434.67 CELLS/uL
- BASOPHIL [4]: 0%
- EOSINOPHIL [4]: 0.33%
- ERYTHROCYTE COUNT [4]: 6.03 x10E6/uL
- HEMATOCRIT [4]: 36.47%
- HEMOGLOBIN [4]: 14.63 G/DL
- LEUKOCYTE COUNT [4]: 15.93 x10E3/uL
- LYMPHOCYTE [4]: 89.67%
- MEAN CORPUSCULAR HEMOGLOBIN [4]: 24.23 pg
- MEAN CORPUSCULAR HEMOGLOBIN CONCENTRATION [4]: 40.13 G/DL
- MEAN CORPUSCULAR VOLUME [4]: 60.47 fL
- MONOCYTE [4]: 0.67%
- NEUTROPHIL [4]: 9.33%
- NUCLEATED RED BLOOD CELLS [4]: 0 /100WBC
- PLATELET COUNT [4]: 1192.33 x10E3/uL
- ALANINE AMINOTRANSFERASE [4]: 64.67 u/L
- ALBUMIN [4]: 4.43 G/DL
- ALKALINE PHOSPHATASE [4]: 429.33 u/L
- ASPARTATE AMINOTRANSFERASE [4]: 83.67 u/L
- BLOOD UREA NITROGEN [4]: 13.33 mg/dL
- CARBON DIOXIDE [4]: 25.67 mmol/L
- CHLORIDE [4]: 104 MEQ/L
- CHOLESTEROL [4]: 55 mg/dL
- CREATINE PHOSPHOKINASE [4]: 157.67 u/L
- CREATININE [4]: 0.2 mg/dL
- GLUCOSE [4]: 140.67 mg/dL
- LACTATE DEHYDROGENASE [4]: 110.67 u/L
- LIPASE [4]: 9.67 u/L
- PHOSPHORUS [4]: 9.97 mg/dL
- POTASSIUM [4]: 6.56 MEQ/L
- SODIUM [4]: 144.1 MEQ/L
- TOTAL BILIRUBIN [4]: 0.2 mg/dL
- TOTAL PROTEIN [4]: 6.27 G/DL
- URIC ACID [4]: 1.53 mg/dL
